Data published in patent publication US11406589B2, “Cutibacterium granulosum strain, and composition comprising such strain or culture thereof for preventing or treating acne” (GENOME AND COMPANY, priority 2018, dated 2022).

Key:
filaggrin = experiment: Skin barrier function: filaggrin RNA expression in HaCaT cell line; assay type: cell-based, human; details: 24 hours, retinoic acid 1 μM (positive control)
claudin-1 = experiment: Skin barrier function: claudin-1 RNA expression in HaCaT cell line; assay type: cell-based, human; details: 24 hours, retinoic acid 1 μM (positive control)
aquaporin = experiment: Skin moisturizing function: aquaporin RNA expression in HaCaT cell line; assay type: cell-based, human; details: 24 hours, retinoic acid 1 μM (positive control)
Protocol: (§1) To investigate a function for a skin moisturizing effect by GENSCO2 fermented filtrates, it was confirmed that the fermented filtrates of GENSCO2 were treated to the HaCaT cell line by % to the cell culture solution, and then were reacted for 24 hours to confirm the expression of HAS3 (hyaluronic acid synthase) and aquaporin which were markers of the skin moisturizing function on RNA.

[1] = tested on: HAS3 (hyaluronic acid synthase); experiment: Skin moisturizing function: HAS3 RNA expression in HaCaT cell line; assay type: cell-based, human; details: 24 hours, retinoic acid 1 μM (positive control)
Protocol: as §1

[2] = tested on: Cutibacterium acnes ATCC 6919; experiment: Growth inhibition, overlay clear zone test; assay type: cell-based; details: overlay on RCM agar, about 72 hours; triclosan positive control 200 mg/ml
Text: (§2) The effect of growth inhibition of S. aureus and C. acnes was confirmed by observing formation of a clear zone. […] The experiment was progressed, expecting that S. aureus and C. acnes around Cutibacterium granulosum GENSC02 could not grow and they became transparent, if Cutibacterium granulosum GENSC02 had the effect of inhibiting the growth of bacteria. The Cutibacterium granulosum GENSC02 culture broth was collected with a platinum loop and was anaerobically cultured in a thin RCM agar plate at 37° C. for 72 hours by drawing a line about 2.5 cm. After confirming that Cutibacterium granulosum GENSC02 sufficiently grew, S. aureus and C. acnes strains adjusted to 10^4 cfu/ml were inoculated in 10 ml RCM agar at about 45° C. which was not yet solidified, and they were well suspended before the medium was hardened, and they were evenly solidified by pouring them on the agar plate in which Cutibacterium granulosum GENSC02 grew. In the solidified agar plate, S. aureus and C. acnes were further cultured anaerobically at 37° C. for about 40 hours and about 72 hours, respectively, to observe the size of the clear zone appearing around Cutibacterium granulosum GENSC02. As the negative control group, phosphate-buffered saline (PBS) was used, and as the positive control group, triclosan was used, and S. aureus and C. acnes were treated at an amount of 10 mg/ml and 200 mg/ml, respectively.

[3] = tested on: Staphylococcus aureus KCTC 1621; experiment: Growth inhibition, overlay clear zone test; assay type: cell-based; details: overlay on RCM agar, about 40 hours; triclosan positive control 10 mg/ml
Text: as §2

CC1=C(/C=C/C(C)=C/C=C/C(C)=C/C(=O)O)C(C)(C)CCC1 [retinoic acid]
expression of filaggrin (filaggrin): 1.5 times
expression of claudin-1 (claudin-1): 1.5 times
expression of aquaporin (aquaporin): 2˜4 times
expression of HAS3 (hyaluronic acid synthase) [1]: 2˜4 times

Oc1cc(Cl)ccc1Oc1ccc(Cl)cc1Cl [triclosan]
growth inhibition of C. acnes (clear zone) [2]: much smaller area than GENSC02 treatment
growth inhibition of S. aureus (clear zone) [3]: much smaller area than GENSC02 treatment
